{"source": "patent US12358983B2", "about": "“Combination of anti CD19 antibody with a BCL-2 inhibitor and uses thereof” (Incyte Corporation, priority 2016, dated 2025)", "tested_on": "MEC-1 cells", "assay": "Cytotoxicity (ADCC assay with NK effector cells) of MOR00208 and venetoclax alone and in combination in MEC-1 cells", "format": "cell-based", "from_the_text": "Cell lines tested: MEC-1 cells (DSMZ# ACC497). Culture conditions of cell lines used are according to supplier's information. Cell Medium: lscove's Modified Dulbecco's Medium (IMDM), Invitrogen, Cat No.: 31980; RPMI1640, Invitrogen, Cat No.: 31870; GlutaMAX, Invitrogen, CAT No.: 35050; FCS: Sigma CAT No.: F7524 LOT No.: 111M3396. NKs: RPMI1640, with GlutaMAX, Invitrogen, Cat No.: 31870, 10% FCS; Biocoll: Biochrome AG CAT No.: L6115 LOT No.: 0034D; MACS NK cell isolation kit: Miltenyi Biotec CAT No.: 130-092-657 LOT No.: 5150402327; venetoclax: Selleck Chem. CAT No.: S8048 LOT No.: S804803; FCS: Sigma CAT No.: F7524 LOT No.: 111M3396; and RefmAb33 (anti-RSV) with same Fc region as MOR00208.\nThe cytotoxic potential of MOR00208 and venetoclax alone and in combination were tested in the MEC-1 cell line (CLL). Target cell killing is measured using the following parameters: venetoclax mono treatment at concentrations of 3 μM, 6.5 μM, and 10 μM; MOR00208 mono treatment at concentrations of 0.01 pM, 0.1 pM, 1 pM, 10 pM, 100 pM and 10 nM, and the combination treatment of the listed venetoclax and MOR00208 concentrations. The following are used as controls: RefnnAb33, NK cells alone, MEC-1 cells alone or DMSO. In the venetoclax mono groups as well as in the MOR00208+venetoclax combination groups, target cells were pretreated with venetoclax or with DMSO control for 24 hours followed by removal of the dead cells prior to the ADCC assay. A dead cell removal kit was used to remove cells killed by the cytotoxic effect of venetoclax. The dead cell removal kit was implemented to mimick the removal of dead cells that also occurs in vivo and to prevent false negative interference of the dead cells with the subsequent ADCC assay. For the ADCC assay, target cells are counted and stained using CFSE at a final concentration of 1 μg/mL. For the control group, i.e. DMSO treated target cells, the effector: target (E:T) cell ratio was adjusted to 2:1, i.e. 1×10E6/nnL effector cells (NK cells) and 5×10E5/mL target cells (MEC-1 cells). […] The ADCC assays were performed as follows: using 96 well plates, 100 μL of MEC-1 target cell suspension was added per well, followed by 100 μL NK effector cell suspension per well. Mixed cell suspensions were centrifuged and resuspended in 100 μL antibody containing medium or the according control solution. The antibodies were diluted in a range of 10 nM-0.01 pM (corresponds to 1.5 μg/mL-1.5 pg/mL) in medium. The ADCC assays were incubated for 2 hours in a CO2-incubator at 37° C. After 10 minutes incubation on ice, 50 μL DAPI solution was added to each well (final concentration 1 μg/mL) and incubated for additional 10 minutes on ice. The ADCC measurements were performed on a BD FACSVerse instrument. Dead target cells were identified as DAPI positive cells.\nCombination Index (CI) calculations are completed in order to determine synergy of the combination of the exemplified anti-CD19 antibody and venetoclax as compared to MOR00208 and venetoclax alone. Such calculations are described in Ting-Chao Chou, Theoretical Basis, Experimental Design, and Computerized Simulation of Synergism and Antagonism in Drug Combination Studies, Pharmacol Rev 58:621-681 (2006), which is incorporated by reference in its entirety and Chou TC, Talalay P, Quantitative analysis of dose-effect relationships: the combined effects of multiple drugs or enzyme inhibitors. Adv Enzyme Regul 22: 27-55 (1984), which is incorporated by reference in its entirety. The methods of Chou-Talalay are carried out using the CI-isobol method.\nThe median-effect equation models the effect of an inhibitor (such as a drug) as Fa/Fu=(D/D50)^m, where D is the dose, Fa and Fu is the fraction of the system affected and unaffected by the dose D (Fa+Fu=1); D50 is the dose producing the median effect (e.g. IC50, ED50, LD50). The constant m determines the shape of the dose-effect curve."}
{"substance": "MOR00208: anti-CD19 antibody; heavy chain SEQ ID NO: 14, light chain SEQ ID NO: 15", "values": [{"measurement": "Theoretical MOR00208 Dose", "setting": "Exp 2, same effect as MOR00208 1.50E−02 μg/mL + venetoclax 6.5 μM", "value": "* 1.00E+03^ μg/mL"}, {"measurement": "Theoretical MOR00208 Dose", "setting": "Exp 2, same effect as MOR00208 1.50E−02 μg/mL + venetoclax 10.0 μM", "value": "* 1.00E+03^ μg/mL"}, {"measurement": "Theoretical MOR00208 Dose", "setting": "Exp 2, same effect as MOR00208 1.50E−03 μg/mL + venetoclax 3.0 μM", "value": 0.00188, "unit": "µg/mL"}, {"measurement": "Theoretical MOR00208 Dose", "setting": "Exp 2, same effect as MOR00208 1.50E−03 μg/mL + venetoclax 6.5 μM", "value": 0.01, "unit": "µg/mL"}, {"measurement": "Theoretical MOR00208 Dose", "setting": "Exp 2, same effect as MOR00208 1.50E−03 μg/mL + venetoclax 10.0 μM", "value": "* 1.00E+03^ μg/mL"}, {"measurement": "Theoretical MOR00208 Dose", "setting": "Exp 2, same effect as MOR00208 1.50E−04 μg/mL + venetoclax 3.0 μM", "value": 0.000155, "unit": "µg/mL"}, {"measurement": "Theoretical MOR00208 Dose", "setting": "Exp 2, same effect as MOR00208 1.50E−04 μg/mL + venetoclax 6.5 μM", "value": 0.000591, "unit": "µg/mL"}, {"measurement": "Theoretical MOR00208 Dose", "setting": "Exp 2, same effect as MOR00208 1.50E−04 μg/mL + venetoclax 10.0 μM", "value": 0.00289, "unit": "µg/mL"}, {"measurement": "Theoretical MOR00208 Dose", "setting": "Exp 2, same effect as MOR00208 1.50E−05 μg/mL + venetoclax 3.0 μM", "value": "1.94e-05", "unit": "µg/mL"}, {"measurement": "Theoretical MOR00208 Dose", "setting": "Exp 2, same effect as MOR00208 1.50E−05 μg/mL + venetoclax 6.5 μM", "value": 0.000109, "unit": "µg/mL"}, {"measurement": "Theoretical MOR00208 Dose", "setting": "Exp 2, same effect as MOR00208 1.50E−05 μg/mL + venetoclax 10.0 μM", "value": 0.000725, "unit": "µg/mL"}, {"measurement": "Theoretical MOR00208 Dose", "setting": "Exp 2, same effect as MOR00208 1.50E−06 μg/mL + venetoclax 6.5 μM", "value": "2.9e-05", "unit": "µg/mL"}, {"measurement": "Theoretical MOR00208 Dose", "setting": "Exp 2, same effect as MOR00208 1.50E−06 μg/mL + venetoclax 10.0 μM", "value": 0.000145, "unit": "µg/mL"}, {"measurement": "Actual MOR00208 Effect", "setting": "Exp 3, MOR00208 1.50E+00 μg/mL", "value": 74.8, "unit": "% dead cells"}, {"measurement": "Actual MOR00208 Effect", "setting": "Exp 3, MOR00208 1.50E−02 μg/mL", "value": 69.1, "unit": "% dead cells"}, {"measurement": "Actual MOR00208 Effect", "setting": "Exp 3, MOR00208 1.50E−03 μg/mL", "value": 45.3, "unit": "% dead cells"}, {"measurement": "Actual MOR00208 Effect", "setting": "Exp 3, MOR00208 1.50E−04 μg/mL", "value": 26.6, "unit": "% dead cells"}, {"measurement": "Actual MOR00208 Effect", "setting": "Exp 3, MOR00208 1.50E−05 μg/mL", "value": 18.9, "unit": "% dead cells"}, {"measurement": "Actual MOR00208 Effect", "setting": "Exp 3, MOR00208 1.50E−06 μg/mL", "value": 11.8, "unit": "% dead cells"}, {"measurement": "Theoretical MOR00208 Dose", "setting": "Exp 3, same effect as MOR00208 1.50E+00 μg/mL + venetoclax 3.0 μM", "value": "* 1.00E+03^ μg/mL"}, {"measurement": "Theoretical MOR00208 Dose", "setting": "Exp 3, same effect as MOR00208 1.50E+00 μg/mL + venetoclax 6.5 μM", "value": "* 1.00E+03^ μg/mL"}, {"measurement": "Theoretical MOR00208 Dose", "setting": "Exp 3, same effect as MOR00208 1.50E+00 μg/mL + venetoclax 10.0 μM", "value": "* 1.00E+03^ μg/mL"}, {"measurement": "Theoretical MOR00208 Dose", "setting": "Exp 3, same effect as MOR00208 1.50E−02 μg/mL + venetoclax 3.0 μM", "value": 0.279, "unit": "µg/mL"}, {"measurement": "Theoretical MOR00208 Dose", "setting": "Exp 3, same effect as MOR00208 1.50E−02 μg/mL + venetoclax 6.5 μM", "value": "* 1.00E+03^ μg/mL"}, {"measurement": "Theoretical MOR00208 Dose", "setting": "Exp 3, same effect as MOR00208 1.50E−02 μg/mL + venetoclax 10.0 μM", "value": "* 1.00E+03^ μg/mL"}, {"measurement": "Theoretical MOR00208 Dose", "setting": "Exp 3, same effect as MOR00208 1.50E−03 μg/mL + venetoclax 3.0 μM", "value": 0.00152, "unit": "µg/mL"}, {"measurement": "Theoretical MOR00208 Dose", "setting": "Exp 3, same effect as MOR00208 1.50E−03 μg/mL + venetoclax 6.5 μM", "value": 0.00652, "unit": "µg/mL"}, {"measurement": "Theoretical MOR00208 Dose", "setting": "Exp 3, same effect as MOR00208 1.50E−03 μg/mL + venetoclax 10.0 μM", "value": "* 1.00E+03^ μg/mL"}, {"measurement": "Theoretical MOR00208 Dose", "setting": "Exp 3, same effect as MOR00208 1.50E−04 μg/mL + venetoclax 3.0 μM", "value": 0.000218, "unit": "µg/mL"}, {"measurement": "Theoretical MOR00208 Dose", "setting": "Exp 3, same effect as MOR00208 1.50E−04 μg/mL + venetoclax 6.5 μM", "value": 0.000602, "unit": "µg/mL"}, {"measurement": "Theoretical MOR00208 Dose", "setting": "Exp 3, same effect as MOR00208 1.50E−04 μg/mL + venetoclax 10.0 μM", "value": 0.0042, "unit": "µg/mL"}, {"measurement": "Theoretical MOR00208 Dose", "setting": "Exp 3, same effect as MOR00208 1.50E−05 μg/mL + venetoclax 3.0 μM", "value": "2.9e-05", "unit": "µg/mL"}, {"measurement": "Theoretical MOR00208 Dose", "setting": "Exp 3, same effect as MOR00208 1.50E−05 μg/mL + venetoclax 6.5 μM", "value": 0.000157, "unit": "µg/mL"}, {"measurement": "Theoretical MOR00208 Dose", "setting": "Exp 3, same effect as MOR00208 1.50E−05 μg/mL + venetoclax 10.0 μM", "value": 0.000983, "unit": "µg/mL"}, {"measurement": "Theoretical MOR00208 Dose", "setting": "Exp 3, same effect as MOR00208 1.50E−06 μg/mL + venetoclax 6.5 μM", "value": "2.67e-05", "unit": "µg/mL"}, {"measurement": "Theoretical MOR00208 Dose", "setting": "Exp 3, same effect as MOR00208 1.50E−06 μg/mL + venetoclax 10.0 μM", "value": 0.000371, "unit": "µg/mL"}, {"measurement": "Effect in ADCC cell killing assays (in words)", "setting": "very low doses of MOR00208", "value": "little or no effect"}]}
